Reference: patent US12378208B2, “N-substituted oseltamivir derivatives with antimicrobial activity” (THE HONG KONG POLYTECHNIC UNIVERSITY, priority 2019, dated 2025)

Key:
[1] = tested on: oseltamivir-resistant strain 11v17178; assay: Plaque assay in MDCK cells; assay type: cell-based, influenza A virus (H1N1 pandemic)
[2] = tested on: oseltamivir-resistant strain 09v71923; assay: Plaque assay in MDCK cells; assay type: cell-based, influenza A virus (H1N1 pandemic)
[3] = day 3, vs DMSO vehicle, two concentrations

`CCOC(=O)C1=C[C@@H](OC(CC)CC)[C@H](NC(C)=O)[C@@H](N)C1` [oseltamivir] was tested, and the plaque size ([1]; 0.1 nM oseltamivir, day 3) was “significant reduction”, the plaque size ([2]; 0.2 nM oseltamivir, day 3) was “larger plaque size” and the plaque size [2, 3] was “could not reduce the plaque size”.

For `CCC(CC)O[C@@H]1C=C(C(=O)O)C[C@H](NCc2noc(-c3ccco3)n2)[C@H]1NC(C)=O` [Compound S7, (3R,4R,5S)-4-acetamido-5-(((5-(furan-2-yl)-1,2,4-oxadiazol-3-yl)methyl)amino)-3-(pentan-3-yloxy)cyclohex-1-ene-1-carboxylic acid], the plaque size [1, 3] was “No inhibition effect” and the plaque size [2, 3] was “No inhibition effect”.

`CCC(CC)O[C@@H]1C=C(C(=O)O)C[C@H](NCc2ccc(-c3c(C)noc3C)o2)[C@H]1NC(C)=O` [Compound S22, (3R,4R,5S)-4-acetamido-5-(((5-(3,5-dimethylisoxazol-4-yl)furan-2-yl)methyl)amino)-3-(pentan-3-yloxy)cyclohex-1-ene-1-carboxylic acid] was tested, and the plaque size [1, 3] was “No inhibition effect” and the plaque size [2, 3] was “No inhibition effect”.
